From paper PMC12517324, “Hyperagonism of a Vitamin D Receptor Agonist/Histone Deacetylase Inhibitor Hybrid Molecule” (Journal of Medicinal Chemistry, 2025)
Values belong to the compound of their own block, whether it stands above or below them.

Columns and labels:
[1] = test system: B16–F10 cells; test: RNaseq gene expression profiling; type: cell-based, mouse; settings: 24 h
Procedure: AC-340 superinduced CYP24A1 expression in all cell lines tested, and ZG-126 appeared to be a hyperagonist in SK-MEL-28 cells. […] AC-340 treatment produced 3 times more differentially expressed genes (DEGs) than AM-193, with ZG-126 producing an intermediate number (Figure A). […] The varying effects of each treatment on the numbers of regulated genes and the fold changes observed are reflected in plots of log-fold changes and volcano plots (Figure S3B).
A quality control was performed before sequencing in paired-end at 50 M reads by Illumina NovaSeq 6000 S4 PE100. After sequencing, the FASTQ files were sent to us and all downstream analysis were performed on Galaxy (Galaxy (usegalaxy.org)). First, trimmomatic tool was used to remove the adapters from the reads. Then, using the alignment tool, HISAT2, the reads were mapped to the mouse genome. In the next step, the counted reads were annotated and finally the list of differentially expressed genes (DEGs) for each treatment was obtained using the preinstalled R package called Limma.

[2] = test system: CYP24A1 in SK-MEL-28 cells; test: CYP24A1 induction (RT-qPCR), extended dose–response in SK-MEL-28 cells
[3] = test system: VDRE in the mouse Spp1 gene, B16–F10 cells; test: ChIP-qPCR at the Spp1 VDRE; type: cell-based
From the text: To test this, we performed ChIP assays in B16–F10 cells, analyzing ligand-induced VDR and CBP (Creb binding protein) coactivator recruitment to the well-characterized consensus vitamin D receptor element (VDRE) in the mouse Spp1 gene (Figure A), which is superinduced by AC-340 (Figures C and A). CBP was chosen because it is widely expressed, and previous studies have shown that it is recruited to Cyp24a1 VDREs. […] In contrast, AC-340 recruited almost 3-fold more CBP under the same conditions (Figure C). CBP is a component of a large coactivator assembly recruited by VDR and required for chromatin remodeling due to its H3K27 acetyltransferase activity. − Since we previously observed a substantially higher level of H3K27 acetylation in AC-340-treated B16–F10 cells (Figure C,D), we intend to assess H3K27 acetylation at the Spp1 VDRE.
Cells were then fixed by adding formaldehyde directly to the culture medium to a final concentration of 1% and incubated for 15 min at RT. To quench the fixation, glycine was added to the medium at a final concentration of 125 mM. […] Quantification of immunoprecipitated materials was performed by qPCR and the enrichment of the target gene VDRE in each condition was normalized to the percentage input.

[4] = biological target: T1, HDAC 10 (Homo sapiens, UniProt Q969S8); test: HDAC 10 inhibition (Reaction Biology, 10-dose IC50)
T1 sequence (Q969S8 1-669): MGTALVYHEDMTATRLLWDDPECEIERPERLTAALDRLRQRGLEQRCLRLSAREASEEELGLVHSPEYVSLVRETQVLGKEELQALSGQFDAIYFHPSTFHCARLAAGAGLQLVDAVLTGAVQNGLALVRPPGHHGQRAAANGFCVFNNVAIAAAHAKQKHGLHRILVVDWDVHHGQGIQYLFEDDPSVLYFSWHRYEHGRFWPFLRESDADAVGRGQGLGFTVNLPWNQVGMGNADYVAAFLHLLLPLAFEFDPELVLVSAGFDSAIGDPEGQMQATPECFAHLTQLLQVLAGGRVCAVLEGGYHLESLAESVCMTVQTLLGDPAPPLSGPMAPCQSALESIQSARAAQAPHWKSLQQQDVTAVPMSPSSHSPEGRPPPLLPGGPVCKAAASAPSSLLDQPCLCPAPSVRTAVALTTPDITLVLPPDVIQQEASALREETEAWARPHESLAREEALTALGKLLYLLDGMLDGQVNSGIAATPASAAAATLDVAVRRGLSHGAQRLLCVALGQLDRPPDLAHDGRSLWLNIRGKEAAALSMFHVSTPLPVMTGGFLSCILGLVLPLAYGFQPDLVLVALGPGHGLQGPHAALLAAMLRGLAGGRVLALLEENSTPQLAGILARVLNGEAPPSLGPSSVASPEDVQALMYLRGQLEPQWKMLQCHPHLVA

[5] = test system: VDR target genes in B16-F10 cells; test: RT-qPCR of selected VDR target genes (RNaseq validation); type: cell-based, mouse; settings: B16-F10, 24 h, compared with other treatments
From the text: The enhanced response of B16–F10 cells to AC-340 likely reflects the VDR hyperagonist activity observed in Cyp24a1 induction assay (Figure A). […] In 49 of 50 cases, AC-340 superinduced their expression, often several fold (Figure C), consistent with AC-340 being a broad hyperagonist of 1,25D-induced genes.
RNAseq data validation by RT-qPCR of selected VDR target genes in B16-F10
Fig. S4. Validation of the RNAseq data by RT-qPCR.

[6] = test system: Cyp24a1 gene in B16–F10 melanoma cells; test: Cyp24a1 gene induction (RT-qPCR) as test of VDR agonism; type: cell-based, mouse; settings: hybrids 10 μM, 1,25D and SAHA 100 nM, 24 h
[7] = test system: VDR; set-up: method as in earlier work; settings: efficacious and well-tolerated dose; ref (ref); cited from earlier work

SMILES: C=C1/C(=C\C=C2/CCC[C@]3(C)[C@@H]([C@H](C)CCCC(C)(C)O)CC[C@@H]23)C[C@@H](O)C[C@@H]1O [1,25D, 1α,25-dihydroxyvitamin D]
logFC 4931406C07Rik ([1]; 100 nM): 0.647 | logFC Abcd2 ([1]; 100 nM): 2.727 | logFC Ace ([1]; 100 nM): 2.102 | logFC Adamts14 ([1]; 100 nM): 1.691 | logFC Adamtsl5 ([1]; 100 nM): 0.7958 | logFC Adssl1 ([1]; 100 nM): 0.8651 | logFC Aqp1 ([1]; 100 nM): 3.095 | logFC Ass1 ([1]; 100 nM): 1.083 | logFC Atoh8 ([1]; 100 nM): 1.866 | logFC C3 ([1]; 100 nM): 2.444 | logFC Cebpd ([1]; 100 nM): 0.9202 | logFC Cib2 ([1]; 100 nM): 0.656 | logFC Crabp2 ([1]; 100 nM): 1.516 | logFC Cyp24a1 ([1]; 100 nM): 6.454 | logFC Dagla ([1]; 100 nM): 0.6621 | logFC Ddo ([1]; 100 nM): 1.132 | logFC Dhrs3 ([1]; 100 nM): 1.185 | logFC Dmpk ([1]; 100 nM): 1.6 | logFC Efcab6 ([1]; 100 nM): 1.404 | logFC Efhd1 ([1]; 100 nM): 3.1104 | logFC Elfn1 ([1]; 100 nM): 4.174 | logFC Enpp1 ([1]; 100 nM): 1.029 | logFC Enpp3 ([1]; 100 nM): 1.066 | logFC Fam83f ([1]; 100 nM): 1.009 | logFC Fam178b ([1]; 100 nM): 0.6417 | logFC Gadd45a ([1]; 100 nM): 0.6305 | logFC Gdpd5 ([1]; 100 nM): 0.8468 | logFC Gm5424 ([1]; 100 nM): 1.087 | logFC Grb14 ([1]; 100 nM): 4.512 | logFC Hcn2 ([1]; 100 nM): 2.951 | logFC Hes6 ([1]; 100 nM): 0.8133 | logFC Hoga1 ([1]; 100 nM): 0.7079 | logFC Hoxb9 ([1]; 100 nM): 0.9861 | logFC Inmt ([1]; 100 nM): 4.174 | logFC Itgal ([1]; 100 nM): 2.511 | logFC Lgr6 ([1]; 100 nM): 1.733 | logFC Lrtm2 ([1]; 100 nM): 3.553 | logFC Mal ([1]; 100 nM): 1.086 | logFC Matn2 ([1]; 100 nM): 1.519 | logFC Mmp28 ([1]; 100 nM): 2.973 | logFC Myl9 ([1]; 100 nM): 1.815 | logFC Neu3 ([1]; 100 nM): 0.8227 | logFC Nptx1 ([1]; 100 nM): 1.67 | logFC Obscn ([1]; 100 nM): 1.291 | logFC Pdlim2 ([1]; 100 nM): 0.7794 | logFC Prag1 ([1]; 100 nM): 0.7325 | logFC Prelp ([1]; 100 nM): 4.153 | logFC Ptges ([1]; 100 nM): 2.985 | logFC Rab7b ([1]; 100 nM): 1.864 | logFC Rac2 ([1]; 100 nM): 2.0813 | logFC Rom1 ([1]; 100 nM): 0.7288 | logFC Rtn2 ([1]; 100 nM): 0.9272 | logFC Scamp1 ([1]; 100 nM): 0.6536 | logFC Serpinb9b ([1]; 100 nM): 0.64 | logFC Sh3bgr ([1]; 100 nM): 1.253 | logFC Shpk ([1]; 100 nM): 0.8108 | logFC Sox8 ([1]; 100 nM): 3.592 | logFC Spp1 ([1]; 100 nM): 3.391 | logFC Srcin1 ([1]; 100 nM): 2.803 | logFC Tgm2 ([1]; 100 nM): 2.227 | logFC Tnni1 ([1]; 100 nM): 6.667 | logFC Ttc39c ([1]; 100 nM): 1.046 | logFC Vdr ([1]; 100 nM): 3.982 | logFC Wnt10a ([1]; 100 nM): 1.853 | CYP24A1 induction on extending the dose range ([2]; SK-MEL-28 cells, 1,25D up to 1 mM): failed to enhance the induction of CYP24A1 | H3K27 acetylation at the Spp1 VDRE [3]: ineffective

IC50 [4]: 4.52 nM
SMILES: Cn1cc(CNCC2CCN(c3ncc(C(=O)NO)cn3)CC2)c2ccccc21 [Quisinostat]

SMILES: CCC(CC)(c1ccc(C(=O)NCCCCC(=O)NO)cc1)c1ccc(OCC(O)C(C)(C)C)c(C)n1 (centres unmarked) [ZG-126]
Prelp gene induction [5]: most efficacious inducer | Tgm2 gene induction [5]: most efficacious inducer | Cyp24a1 gene expression induction [6]: more efficacious than 1,25D (and AM-193) | logFC Btn1a1 ([1]; 10 μM): 8.367 | logFC Cyp24a1 ([1]; 10 μM): 8.537 | logFC Elfn1 ([1]; 10 μM): 7.8172 | logFC Nccrp1 ([1]; 10 μM): 7.976 | logFC Tnni1 ([1]; 10 μM): 9.358 | CYP24A1 induction (VDR hyperagonism) ([2]; SK-MEL-28 cells, 10 μM): displayed hyperagonism | VDR agonist activity in vivo [7]: displays VDR agonist activity in vivo
